For three compounds, Resistance factor and IC50 results are on record in ChEMBL document CHEMBL1134999, “Synthesis and cytotoxic activity of a new potent daunomycinone derivative” (Bioorg Med Chem Lett, 2002).

Structures are written as SMILES.

Experiment [1] relates to KB. Put plainly: Resistance factor (RF), ratio between the IC50 on the resistant cells and the IC50 on the corresponding sensitive cells of KB cell line. It is filed as functional, Homo sapiens.
A further experiment concerns L1210. Kind of experiment: In vitro cytotoxic activity was evaluated using the murine leukemia L1210 cell line. It is filed as functional, cell-based. The settings on record: Mus musculus.
For the next experiment, the system named is SK-MES-1. Put plainly: Resistance factor (RF), ratio between the IC50 on the resistant cells and the IC50 on the corresponding sensitive cells of MES cell line. The class given is functional, Homo sapiens.
For experiment [2], the system named is MES-SA. Put plainly: In vitro cytotoxic activity was evaluated using the MES-SA multidrug-resistant subline MES-SA/Dx5. The class given is functional, cell-based. As to conditions: Homo sapiens.
The subject of experiment [3] is MES-SA. Kind of experiment: In vitro cytotoxic activity was evaluated using the human uterine sarcoma cell line MES-SA. The class given is functional, cell-based.
For experiment [4], the system named is KB. Put plainly: In vitro cytotoxic activity was evaluated using the KB-3-1 resistant to adriamycin (ADR) subline KB-A1. The class given is functional, cell-based. The settings on record: Homo sapiens.
Another experiment concerns KB 3-1. Kind of experiment: In vitro cytotoxic activity was evaluated using the human epidermoid carcinoma cell line KB-3-1. It is filed as functional, cell-based.

Consider `COc1cccc2c1C(=O)c1c(O)c3c(c(O)c1C2=O)C[C@@](O)(C(=O)CO)C[C@@H]3O[C@H]1C[C@H](N)[C@H](O)[C@H](C)O1` [DOXORUBICIN], for which the values for the Resistance factor with KB [1] and in the experiment on SK-MES-1 were 333.8 and 48, respectively. For the same compound, the IC50 (usually the concentration that gives 50% inhibition) worked out at 25 nM in the experiment on L1210, 12000 nM in the experiment on MES-SA [2] and 250 nM in the experiment on MES-SA [3].
Take `COc1cccc2c1C(=O)c1c(O)c3c(c(O)c1C2=O)C[C@@](O)(C(C)=O)C[C@@H]3OC1CC(Br)C(N=[N+]=[N-])C(C)O1` (some centres not stated): the Resistance factor in the experiment on KB [1] was 1.1; with SK-MES-1, 0.28. For the same compound, the IC50 in the experiment with KB [4] was found to be 900 nM; in the experiment on L1210, 500 nM; with MES-SA [2] it was 2000 nM; in the experiment on MES-SA [3], 7000 nM; with KB 3-1 it was 800 nM.
Consider `COc1cccc2c1C(=O)c1c(O)c3c(c(O)c1C2=O)C[C@@](O)(C(C)=O)C[C@@H]3O[C@H]1C[C@H](N)[C@H](O)[C@H](C)O1` [DAUNORUBICIN], for which the Resistance factor with KB [1] amounted to 295.7; in the experiment on SK-MES-1, 42.8. Moreover, the values for the half-inhibitory concentration (IC50) in the experiment with L1210, with MES-SA [2] and in the experiment on MES-SA [3] were 40 nM, 3000 nM and 70 nM, respectively.
